US20250313537A1, “BENZ[…] AND METHODS OF USE IN TREATING CANCER” (University of Cincinnati, priority 2022, published 2025)
“Also recorded” adds a separate entry of the source.

Key:
H1792 cells = test: In vitro viability assay (Cell Titer 96 Aqueous One), H1792; assay type: cell-based, human; settings: H1792 cells (FIG. 6, 7A, 7B)
Procedure: (§1) Cell lines tested were purchased from the American Type Culture Collection (ATCC). Cells were maintained in Dulbecco's Modified Eagle's Medium (DMEM) (Corning) or Roswell Park Memorial Institute (RPMI) 1640 Medium (Gibco). Media for lines was supplemented with 10% (v/v) Fetal Bovine Serum (FBS) (Corning) and 100 U/mL penicillin/streptomycin (Sigma). Lines were grown at 37° C. with 5% (v/v) CO2. Cells were passaged twice a week at 1:10 ratio and reached 80 to 90% confluency between 72 and 96 hours.
(§2) For in vitro studies drug was solubilized in dimethyl sulfoxide (DMSO, 0.125%) prior to use. For mouse studies drug was solubilized in a co-solvent formulation: propylene glycol (40%); ethanol (10%); benzyl alcohol (2%); benzoic acid (2%); sodium benzoate (2%).
(§3) For cell proliferation viability studies, cells were assayed using the Cell Titer 96® Aqueous One Solution Assay (Promega). IC50 values were determined using the ‘[Inhibitor] versus normalized response’ nonlinear regression function and the log of inhibitor concentration in Prism 8 software (version 8.3.0 for MacOS).

GABAA receptors = test: Single-cell patch-clamp electrophysiology in H1792 cells; assay type: cell-based, human; settings: 1 μM GABA + 4 μM QH-II-066
Source text: Recording solutions were purchased from Nanion Technologies.

[1] = test system: LC3B- and NIX-positive puncta in H1792 cells; test: Confocal immunofluorescence of autophagosome puncta; assay type: cell-based, human; settings: H1792, relative to DMSO control
Procedure: Cells were seeded on sterile glass cover slips and grown overnight at 37° C. Cells were then rinsed with cold PBS and fixed in 4% paraformaldehyde (30 min, room temperature). Fixed cells were rinsed in PBS (3×5 min at room-temperature), and permeabilized (15 min in PBS containing 0.1% Triton X-100). Cells were washed in PBS (3× for 5 min at room-temperature) and incubated with blocking buffer (PBS containing 0.3% Triton X-100 and 3% BSA) for 1 hr at room-temperature with gentle shaking. Blocking solution was aspirated, cells washed with ice-cold PBS, and incubated overnight with primary Ab (LC3B or NIX) diluted 1:200 in sterile 0.5% BSA in PBS at 4° C. on the cover slip placed on a glass slide kept inside a humidified 10 cm dish with gentle shaking 60. Cells were washed (3× for 5 min in PBS) and incubated with fluorophore conjugated secondary Ab goat anti-rabbit Alexa Fluor 594 (Abcam) in 2% normal donkey serum at room-temperature for 1 hr in dark. Cells were washed (3× for 5 min in PBS) under low light and mounted on a glass slide in […] Antifade Mounting Medium with DAPI (Vector Laboratories). The following Abs were used (1:200 dilution): rabbit anti-human LC3B (Cell Signaling Technology) and rabbit NIX (Cell Signaling Technology). Slides were imaged on a Zeiss LSM 710 laser scanning confocal microscope and analyzed using NIH Fiji ImageJ2 (version 1.53c).

GABARAP = test: Western blot of GABARAP in H1792 cells; assay type: cell-based, human
Procedure: DNA was sheared by sonication. Lysates were kept on ice for 30 min, centrifuged 10 min (13,500×g, 4° C.), and protein concentration of supernatant determined by a Bradford assay (Protein Assay Dye Reagent, Bio-Rad). Lysates were mixed 1:1 with 2× Laemmli sample buffer containing β-mercaptoethanol and heated 5 min at 95° C. Protein was resolved by SDS-PAGE using 4-20% gradient polyacrylamide gels (Bio-Rad), then transferred to nitrocellulose membranes (Bio-Rad) for 2 hr at 100 V in tris-glycine transfer buffer containing 20% methanol. Membranes were blocked at room-temperature in 5% 1×TBST blocking buffer (TBS with 0.1% Tween-20 and 5% non-fat dry milk) for 1 hr with gentle agitation, followed by overnight incubation with primary Ab and gentle shaking at 4° C. The primary Abs were diluted as follows: GAPDH (1:1000, Cell Signaling Technology); GABARAP (1:1000, Cell Signaling Technology); NIX (1:1000, Cell Signaling Technology). Immunodetection was performed with anti-rabbit horseradish-peroxidase-conjugated secondary antibody (1:10000, Cell Signaling Technology). Post-primary Ab incubation, membranes were washed (3× for 10 min in TBST at room-temperature), probed with rabbit HRP tagged secondary antibody (1:3000, Cell Signaling Technology), and processed for chemiluminescence detection using ECL kit (Thermo Scientific). […]

NIX = test: Western blot of NIX in H1792 cells; assay type: cell-based, human
Procedure: DNA was sheared by sonication. Lysates were kept on ice for 30 min, centrifuged 10 min (13,500×g, 4° C.), and protein concentration of supernatant determined by a Bradford assay (Protein Assay Dye Reagent, Bio-Rad). Lysates were mixed 1:1 with 2× Laemmli sample buffer containing β-mercaptoethanol and heated 5 min at 95° C. Protein was resolved by SDS-PAGE using 4-20% gradient polyacrylamide gels (Bio-Rad), then transferred to nitrocellulose membranes (Bio-Rad) for 2 hr at 100 V in tris-glycine transfer buffer containing 20% methanol. Membranes were blocked at room-temperature in 5% 1×TBST blocking buffer (TBS with 0.1% Tween-20 and 5% non-fat dry milk) for 1 hr with gentle agitation, followed by overnight incubation with primary Ab and gentle shaking at 4° C. The primary Abs were diluted as follows: GAPDH (1:1000, Cell Signaling Technology); GABARAP (1:1000, Cell Signaling Technology); NIX (1:1000, Cell Signaling Technology). Immunodetection was performed with anti-rabbit horseradish-peroxidase-conjugated secondary antibody (1:10000, Cell Signaling Technology). Post-primary Ab incubation, membranes were washed (3× for 10 min in TBST at room-temperature), probed with rabbit HRP tagged secondary antibody (1:3000, Cell Signaling Technology), and processed for chemiluminescence detection using ECL kit (Thermo Scientific). Chemiluminescence images were acquired using ChemiDoc Touch Imaging System (Bio-Rad).

[2] = test system: Lewis Lung Carcinoma cells; test: Mitochondrial depolarization, TMRE binding by FACS; assay type: cell-based, mouse; settings: for TMRE binding (depolarization): Lewis Lung Carcinoma cells, FACS, within 15 minutes of incubation; for shift in electric charge distribution / depolarization of cancer cells: different/disparate cancer cell types
[3] = test system: cancer cell lines A375, H1792, LN18, LLC; test: In vitro viability assay (Cell Titer 96 Aqueous One), cancer cell lines; assay type: cell-based, human, mouse; settings: for cytotoxicity of NOR-variant relative to non-NOR-variant: SRE-III-35 vs TA-IV-74, TA-II-59 vs TA-II-73
Procedure: as §1, §2, §3

[4] = test system: Lewis Lung Carcinoma (LLC) tumors; test: Bilateral flank LLC tumor growth delay in C57Bl6 mice; assay type: in vivo, mouse
Source text: as §2
For subcutaneous xenograft tumor growth delay experiments, black 6 mice (C57Bl6) were purchased (Charles River Laboratories) and housed at University of Cincinnati LAMS. Purchased mice were allowed to accommodate for a week prior to experiment. Mice were housed in pathogen-free rooms and clinical health evaluated weekly by veterinary staff of the University of Cincinnati LAMS. All animal studies were conducted in accordance with approval of a University of Cincinnati IACUC.
LLC1 cells (a million) grown in RPMI medium were washed in cold PBS and mixed with Matrigel 25%, then injected subcutaneously into left and right flanks above the hind limbs of 6 to 8-week-old mice. When subcutaneous tumors were palpable (˜100 mm^3 in size) the following treatments groups were initiated: (1) vehicle (2) drug. In mice receiving vehicle alone, the vehicle was injected i.p for 7 days. In mice receiving drug, drug (2.5 mg/kg body weight) was injected i.p. for 7 days. Following end of treatment, tumor volume were taken for growth delay studies. Mouse tumors were measured by Vernier calipers. Tumor volume was calculated using the formula: 4/3π×(l×h2), where: l and h are radii of the tumor taken perpendicular to each other. Tumor size was measured three times a week using a caliper.

[5] = 2.5 mg/kg i.p. for seven consecutive days

Q: With `C#Cc1ccc2c(c1)C(c1ccccc1F)=NC(O)C(=O)N2` (stereo not drawn) [MYM-I-59, 7-ethynyl-5-(2-fluorophenyl)-3-hydroxy-1,3-dihydro-2H-benzo[e][1,4]diazepin-2-one] as the compound, how does the “cytotoxicity (activity)” value (H1792 cells) read?
A: poorly or inactive

Q: Which “current response to GABA plus compound over GABA alone” value (GABAA receptors) does the source give for `C#Cc1ccc2c(c1)C(c1ccccc1)=NCC(=O)N2C` [QH-II-066] here?
A: enhanced response; also recorded: enhances the current signal

Q: What about the LC3B-positive puncta [1] of the same compound?
A: increased puncta

Q: What about the NIX-positive puncta [1] of the same compound?
A: increased puncta

Q: What about the GABARAP dimerization (GABARAP; H1792, 72 hours) of the same compound?
A: dimerize

Q: And the GABARAP protein level (GABARAP; H1792, 72 hours post-treatment)?
A: pronounced accumulation

Q: What about the “dose dependence of induced NIX dimerization” value (NIX; H1792) of the same compound?
A: dose-dependent

Q: And the NIX dimerization (NIX; H1792, 72 hours)?
A: dimerize

Q: And the NIX protein level (NIX; H1792, 72 hours post-treatment)?
A: pronounced accumulation

Q: For `O=C1CN=C(c2ccccc2)c2cc(C3CC3)ccc2N1` [SRE-III-35, 7-cyclopropyl-5-phenyl-1,3-dihydro-2H-benzo[e][1,4]diazepin-2-one], which “TMRE binding (depolarization)” value [2] is on record?
A: reduced TMRE binding

Q: What about the “shift in electric charge distribution / depolarization of cancer cells” value [2] of the same compound?
A: depolarizing

Q: And the “cytotoxicity of NOR-variant relative to non-NOR-variant” value [3]?
A: 2 fold

Q: What about the “potency relative to TA-II-59” value ([3]; cytotoxicity) of the same compound?
A: equally as potent

Q: And the “tumor control relative to vehicle mice” value [4, 5]?
A: significant tumor control

Q: Which results are given for `O=C1CN=C(c2ccccc2F)c2cc(C3CC3)ccc2N1` [SRE-III-43, 7-cyclopropyl-5-(2-fluorophenyl)-1,3-dihydro-2H-benzo[e][1,4]diazepin-2-one]?
A: TMRE binding (depolarization) [2]: reduced TMRE binding; shift in electric charge distribution / depolarization of cancer cells [2]: depolarizing

Q: For `C#Cc1ccc2c(c1)C(c1ccccc1C)=NCC(=O)N2` [TA-II-59, 7-ethynyl-5-(o-tolyl)-1,3-dihydro-2H-benzo[e][1,4]diazepin-2-one], which “TMRE binding (depolarization)” value [2] is on record?
A: reduced TMRE binding

Q: And the “shift in electric charge distribution / depolarization of cancer cells” value [2]?
A: depolarizing

Q: What about the “cytotoxicity to cancer cells” value ([3]; LN18, H1792, A375, LLC1) of the same compound?
A: most potent

Q: And the “cytotoxicity of NOR-variant relative to non-NOR-variant” value [3]?
A: 2 fold

Q: And the “potency relative to QH-II-066” value ([3]; cytotoxicity)?
A: an order of magnitude more potent

Q: What about the “tumor control relative to vehicle mice” value [4, 5] of the same compound?
A: significant tumor control

Q: Which “cytotoxicity (activity)” value (H1792 cells) does the source give for `C#Cc1ccc2c(c1)C(c1ccccc1F)=NCC(=S)N2C` [TA-III-50, 7-ethynyl-5-(2-fluorophenyl)-1-methyl-1,3-dihydro-2H-benzo[e][1,4]diazepine-2-thione] here?
A: poorly or inactive

Q: `C#Cc1ccc2c(c1)C(c1ccccc1)=NCC(=S)N2C` [TA-III-52, 7-ethynyl-1-methyl-5-phenyl-1,3-dihydro-2H-benzo[e][1,4]diazepine-2-thione] was tested. Which “cytotoxicity (activity)” value (H1792 cells) did it give?
A: poorly or inactive

Q: For `O=C1CN=C(c2ccccc2)c2cc(Br)cc(Br)c2N1` [TA-III-56, 7,9-dibromo-5-phenyl-1,3-dihydro-2H-benzo[e][1,4]diazepin-2-one], which “cytotoxicity (activity)” value (H1792 cells) is on record?
A: poorly or inactive

Q: For `C#Cc1cc(C#C)c2c(c1)C(c1ccccc1)=NCC(=O)N2C` [TA-III-62, 7,9-diethynyl-1-methyl-5-phenyl-1,3-dihydro-2H-benzo[e][1,4]diazepin-2-one], which “cytotoxicity (activity)” value (H1792 cells) is on record?
A: poorly or inactive

Q: With `C#Cc1ccc2c(c1)C(c1ccccc1)=NC(O)C(=O)N2C` (stereo not drawn) [TA-III-70, 7-ethynyl-3-hydroxy-1-methyl-5-phenyl-1,3-dihydro-2H-benzo[e][1,4]diazepin-2-one] as the compound, how does the “cytotoxicity (activity)” value (H1792 cells) read?
A: poorly or inactive

Q: What does the source list for `CN1C(=O)CN=C(c2ccccc2)c2cc(C3CC3)ccc21` [TA-IV-74, 7-cyclopropyl-1-methyl-5-phenyl-1,3-dihydro-2H-benzo[e][1,4]diazepin-2-one]?
A: effect compared with the other compounds tested [4, 5]: most significant effect; also recorded: most effective; tumor control relative to vehicle mice [4, 5]: significant tumor control; tumor volume ([4]; at 25 days, 2.5 mg/kg i.p. for seven days): no increase in tumor volume
